In publication PMC12121987, “New structural scaffolds to enhance the metabolic stability of arginine-derived PAD4 inhibitors” (Results in chemistry, 2025):
Where two headings read alike, the source gives them in different places.

Columns and labels:
[1] = cited from earlier work
PAD1 = biological target: T1, PAD1 (Homo sapiens, UniProt Q9ULC6); assay: PAD1 inhibitory activity; format: biochemical; conditions: n = 3
T1 sequence (Q9ULC6 1-663): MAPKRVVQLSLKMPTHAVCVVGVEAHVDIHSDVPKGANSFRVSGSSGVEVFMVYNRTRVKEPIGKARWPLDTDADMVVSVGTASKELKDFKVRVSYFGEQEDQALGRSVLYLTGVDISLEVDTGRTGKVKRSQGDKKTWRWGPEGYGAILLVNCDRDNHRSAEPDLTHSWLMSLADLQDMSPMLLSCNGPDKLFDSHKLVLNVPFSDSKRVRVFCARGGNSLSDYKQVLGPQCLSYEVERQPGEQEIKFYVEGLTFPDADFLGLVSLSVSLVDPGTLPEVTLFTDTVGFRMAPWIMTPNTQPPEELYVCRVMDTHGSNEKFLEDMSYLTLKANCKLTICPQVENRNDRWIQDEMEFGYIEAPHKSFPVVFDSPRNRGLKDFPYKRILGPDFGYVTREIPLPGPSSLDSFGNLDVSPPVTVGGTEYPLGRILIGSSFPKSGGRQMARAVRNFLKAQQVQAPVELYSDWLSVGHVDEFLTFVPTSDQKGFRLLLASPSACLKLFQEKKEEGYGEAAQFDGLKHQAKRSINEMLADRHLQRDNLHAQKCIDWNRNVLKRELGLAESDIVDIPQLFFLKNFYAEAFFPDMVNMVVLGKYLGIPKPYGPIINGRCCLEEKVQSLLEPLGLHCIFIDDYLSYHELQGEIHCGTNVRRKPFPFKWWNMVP

[2] = Microsomal metabolic stability, mouse liver microsomes; format: in vitro ADME; conditions: male, C57BL/6, mouse, pooled liver microsomes; for remaining at 1 h, 0.2 μM: pH 7.4, 60 min, n = 3, read-out: %remaining in MLM; for half-life at 0.2 μM: pH 7.4, MLM
Method: (§1) The metabolic stability of the compounds was evaluated using mouse liver microsomes (MLM) and human liver microsomes (HLM). Each compound was tested at a final concentration of 0.2 μM to determine their half-lives. […]
(§2) Microsomal metabolic stability assay protocol
(§3) Pooled liver microsomes from male C57BL/6 mouse (MLM) and mixed gender human (HLM) were obtained from Sekisui XenoTech (Kansas City, KS). Stock solutions of compounds (1 mM) were prepared in DMSO and diluted to 10 μM working solution using phosphate buffer (100 mM, pH 7.4). Microsomes (20 mg/mL) were thawed on ice and diluted to 1 mg/mL using potassium phosphate buffer (100 mM, pH 7.4). The mixture of liver microsomes and test compounds (0.2 μM) was (1 picture or pasted object on this page, not shown here) […]
(§4) preincubated at 37°C for 10 min. Next, NADPH-regenerating system (final concentrations of 1 mM NADP+, 5 mM glucose-6-phosphate, and 1 U/mL glucose-6-phosphate dehydrogenase) as a cofactor was added to the incubation mixtures at the final volume of 1000 μL to initiate the metabolic reactions. Quenching of the metabolic reaction was performed at specific intervals: 0, 5, 15, 30, and 60 min by adding100 μL of reaction mixtures to ice-cold acetonitrile (4 volumes) containing 25 nM internal standard. The samples were kept on ice for 15 minutes, followed by protein precipitation through centrifugation at 3600 rpm for 10 minutes at4°C. Finally, the liquid chromatography-mass spectrometry/MS (LC-MS/MS) analysis was conducted on obtained supernatants. To ensure accuracy, all measurements were […]
(§5) The percent of remaining compound (%R) compared to zero sample time was obtained at each time point using LC-MS peak areas. A plot was created for the natural logarithm (ln) of % R against the incubation time to determine the elimination rate constant from the slope of the linear part. The in vitro t1/2was measured by […]
(§6) While the following Eq. (2) was used for calculating CLint (μL/min/mg): […]

[3] = Microsomal metabolic stability, human liver microsomes; format: in vitro ADME; conditions: both sexes, pooled liver microsomes; for remaining at 1 h, 0.2 μM: pH 7.4, 60 min, n = 3, read-out: %remaining in HLM; for half-life at 0.2 μM: pH 7.4, HLM, read-out: half-life (t1/2) in human liver microsomes
Method: as §1, §2, §3, §4, §5, §6

PAD2 = PAD2 (Homo sapiens, UniProt Q9Y2J8); assay: PAD2 inhibitory activity; format: biochemical; conditions: n = 3
A549 cells = assay: MTT cytotoxicity assay; format: cell-based; conditions: 50 μM and 5 μM, 48-hour incubation
Method: (§7) The cytotoxicity of three compounds on A549 cells was evaluated using the MTT assay.
(§8) In vitro cytotoxicity was evaluated using the MTT
(§9) (3-(4,5-dimethylthiazol-2-yl)-2,5-diphenyltetrazolium bromide) assay. Freshly trypsinized A549 cells were seeded into 96-well plates at a density of 5 × 10⁴ cells/mL, with 100 µL per well, and incubated at 37°C in a 5% CO₂ atmosphere for 12 hours. […]
(§10) concentrations of 500 μM, 50 μM, and 5 μM (25 µL per well), followed by 48-hour incubation. After this period, MTT solution (5 mg/mL) was added to each well at 25 µL per well, and the plates were incubated for an additional 4 hours. Control wells containing untreated cells were handled identically. Following incubation, the medium in the 96-well plate was removed, and 100 µL of DMSO was added to each well to dissolve the formazan crystals produced by the reduction of MTT in viable cells. Absorbance was measured using a microplate reader. Cell viability was determined using the following formula: Cell viability (%) = (OD-treated cells)/(OD […]

MTT cytotoxicity assay = format: cell-based; conditions: human, A549 cells, 48-hour incubation; for viability at 48 h, 500 µM: read-out: Cell viability of A549 cells; for IC50 at 48 h: read-out: IC50 against A549 cells (cytotoxicity)
Method: as §7, §8, §9, §10

PAD4 [4] = biological target: T2, PAD4 (Homo sapiens, UniProt Q9UM07); assay: Time-dependent PAD4 inhibition assay (pre-incubation 10 or 30 min); format: biochemical; conditions: BB-Cl-amidine 1 μM, 7 125 μM, 8 45 μM, n = 3
T2 construct: purchased Cayman Chemical
Method: To test this hypothesis, the three compounds (3, 7 and 8) were further assessed through a time-dependent inhibition assay. This assay involved pre-incubating the compounds with the PAD4 enzyme for 10 and 30 min before initiation of the enzymatic reaction.
Fig. 3. Inhibition of PAD4 with a pre-incubation of the enzyme and tested compounds for 10- or 30-min. […]
(§11) PAD4 Enzyme Inhibition Assays
(§12) PAD4 Inhibitor Screening Assay Kit (AMC) was purchased from Cayman. Different concentrations of the test compounds were added to a 96-well plate with PAD4 enzyme enzyme and incubated at 37 °C for 10 minutes or 30 minutes. Then […] was added toinitiate the reaction and incubated at 37 °C for 20 min. The reaction was terminated by the addition of Develop solution.
Fluorescence analysis was performed at excitation wavelengths of 355 ~ 365 nm and emission wavelengths of 445 ~ 455 nm. The fluorescence signal was inversely

PAD4 [5] = biological target: T2, PAD4; assay: PAD4 enzyme inhibition assay (Cayman PAD4 inhibitor screening kit, AMC); format: biochemical; conditions: n = 3; read-out: Inhibitory activity IC50 PAD4
Method: chromatography with ACN:H2O (0.02% formic acid) as the mobile phase, and then […]
as §11, §12
Fluorescence analysis was performed at excitation wavelengths of 355 ~ 365 nm and emission wavelengths of 445 ~ 455 nm. The fluorescence signal was inversely proportional to the amount ofcitrullination. IC50 were analyzed using GraphPad Prism […]
as §2
Pooled liver microsomes from male C57BL/6 mouse (MLM) and mixed gender human (HLM) were obtained from Sekisui XenoTech (Kansas City, KS). Stock solutions of compounds (1 mM) were prepared in DMSO and diluted to 10 μM working solution using phosphate buffer (100 mM, pH 7.4). Microsomes (20 mg/mL) were thawed on ice and diluted to 1 mg/mL using potassium phosphate buffer (100 mM, pH 7.4). The mixture of liver microsomes and test compounds (0.2 μM) was (1 picture or pasted object on this page, not shown here)

[6] = read-out: half-life (t1/2) in mouse liver microsomes
[7] = rough estimation beyond the 60 min assay, read-out: t1/2 in MLM, rough estimation

T2 sequence (Q9UM07 whole entry): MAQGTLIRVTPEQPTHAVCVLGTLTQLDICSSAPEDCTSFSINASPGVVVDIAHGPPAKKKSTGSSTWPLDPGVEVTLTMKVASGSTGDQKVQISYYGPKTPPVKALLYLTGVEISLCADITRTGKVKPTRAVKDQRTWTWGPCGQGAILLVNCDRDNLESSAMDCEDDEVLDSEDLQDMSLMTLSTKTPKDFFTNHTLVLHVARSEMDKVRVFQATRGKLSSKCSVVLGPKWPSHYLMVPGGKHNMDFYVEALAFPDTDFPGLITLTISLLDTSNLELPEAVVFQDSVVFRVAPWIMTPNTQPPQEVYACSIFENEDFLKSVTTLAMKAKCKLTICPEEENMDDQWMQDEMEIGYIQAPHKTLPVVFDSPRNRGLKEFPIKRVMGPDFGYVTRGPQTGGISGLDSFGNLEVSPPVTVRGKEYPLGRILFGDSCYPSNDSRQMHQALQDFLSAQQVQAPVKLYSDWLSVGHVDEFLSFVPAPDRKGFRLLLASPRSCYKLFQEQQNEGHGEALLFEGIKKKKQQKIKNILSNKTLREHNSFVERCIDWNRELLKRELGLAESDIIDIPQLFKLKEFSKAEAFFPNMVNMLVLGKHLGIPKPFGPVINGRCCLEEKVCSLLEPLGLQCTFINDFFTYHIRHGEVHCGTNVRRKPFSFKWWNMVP
Chain of PAD2 (Q9Y2J8 whole entry, species assumed): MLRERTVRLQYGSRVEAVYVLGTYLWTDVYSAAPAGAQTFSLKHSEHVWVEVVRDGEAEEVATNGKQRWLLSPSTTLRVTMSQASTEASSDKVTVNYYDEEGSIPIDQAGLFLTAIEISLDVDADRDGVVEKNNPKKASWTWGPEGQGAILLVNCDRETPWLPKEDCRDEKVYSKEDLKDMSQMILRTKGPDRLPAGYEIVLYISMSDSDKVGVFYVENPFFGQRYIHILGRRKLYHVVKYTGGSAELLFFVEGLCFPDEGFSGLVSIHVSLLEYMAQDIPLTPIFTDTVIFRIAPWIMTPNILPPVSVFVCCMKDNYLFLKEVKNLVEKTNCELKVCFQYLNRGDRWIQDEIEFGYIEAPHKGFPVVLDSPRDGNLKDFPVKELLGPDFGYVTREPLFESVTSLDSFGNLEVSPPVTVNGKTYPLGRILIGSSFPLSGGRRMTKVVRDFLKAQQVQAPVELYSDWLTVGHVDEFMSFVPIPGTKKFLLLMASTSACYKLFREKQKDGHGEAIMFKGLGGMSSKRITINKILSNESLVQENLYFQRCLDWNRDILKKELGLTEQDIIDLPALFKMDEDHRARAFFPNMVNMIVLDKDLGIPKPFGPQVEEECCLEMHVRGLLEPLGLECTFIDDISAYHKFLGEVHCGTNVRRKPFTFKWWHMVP

| SMILES | IC50 (PAD1) [µM] | remaining at 1 h, 0.2 μM [2] [%] | half-life at 0.2 μM [2, 6] [h] | half-life at 0.2 μM [2, 7] [h] | remaining at 1 h, 0.2 μM [3] [%] | half-life at 0.2 μM [3] [h] | IC50 (PAD2) [µM] | %inhibition of PAD4, pre-incubation 10 min (PAD4 [4]) [%] | %inhibition of PAD4, pre-incubation 30 min (PAD4 [4]) [%] | IC50 (PAD4 [5]) [µM] | t1/2 (pharmacokinetic studies) [1] [h] | Cytotoxicity on A549 cells (A549 cells) | viability at 48 h, 500 µM (MTT cytotoxicity assay) [%] | IC50 at 48 h (MTT cytotoxicity assay) [µM] | t1/2 (pharmacokinetic studies) ([1]; in vivo) [h] |
| --- | --- | --- | --- | --- | --- | --- | --- | --- | --- | --- | --- | --- | --- | --- | --- |
| N=C(CCl)NCCC[C@H](NC(=O)c1ccc(B(O)O)cc1)C(=O)NCc1ccccc1 [YJ-4B] | – | – | – | – | – | – | – | – | – | – | 0.35 | – | – | – | – |
| N=C(CCl)NCCC[C@H](Nc1ccc([N+](=O)[O-])c2nonc12)C(=O)NCc1ccccc1 [ZD-E-1] | – | – | – | – | – | – | – | – | – | – | – | – | – | – | 0.41 |
| N=C(CCl)NCCC[C@H](NC(=O)c1ccc(-c2ccccc2)cc1)c1nc2ccccc2[nH]1 [BB-Cl-amidine, reference compound] | – | 10.4 ± 1.42 | 0.302 | – | 51.8 ± 7.48 | 1.03 | – | – | – | – | – | – | – | – | – |

Further lines, with some results ahead:

| IC50 (PAD1) [µM] | remaining at 1 h, 0.2 μM [2] [%] | half-life at 0.2 μM [2, 6] [h] | half-life at 0.2 μM [2, 7] [h] | remaining at 1 h, 0.2 μM [3] [%] | half-life at 0.2 μM [3] [h] | IC50 (PAD2) [µM] | %inhibition of PAD4, pre-incubation 10 min (PAD4 [4]) [%] | %inhibition of PAD4, pre-incubation 30 min (PAD4 [4]) [%] | IC50 (PAD4 [5]) [µM] | SMILES | t1/2 (pharmacokinetic studies) [1] [h] | Cytotoxicity on A549 cells (A549 cells) | viability at 48 h, 500 µM (MTT cytotoxicity assay) [%] | IC50 at 48 h (MTT cytotoxicity assay) [µM] | t1/2 (pharmacokinetic studies) ([1]; in vivo) [h] |
| --- | --- | --- | --- | --- | --- | --- | --- | --- | --- | --- | --- | --- | --- | --- | --- |
| 194 ± 8.21 | 75.9 ± 4.75 | > 1 | ~2.65 | 90.3 ± 10.6 | > 1 | 352 ± 21.3 | 31.46 | 36.86 | 125 ± 10.2 | N=C(CO)NCCC[C@H](NC(=O)c1ccc(-c2ccccc2)cc1)c1nc2ccccc2[nH]1 [Compound 7] | – | no cytotoxicity | 26.8 | ~455 | – |
| 32 ± 0.78 | 63 ± 4.85 | > 1 | ~1.45 | 73.2 ± 1.89 | > 1 | 74.9 ± 6.48 | 49.28 | 51.44 | 46.5 ± 4.46 | O=C(CO)NCCC[C@H](NC(=O)c1ccc(-c2ccccc2)cc1)c1nc2ccccc2[nH]1 [Compound 8] | – | no cytotoxicity | 103 | > 500 | – |
